# Assay results from publication PMC4447944 (The Journal of Biological Chemistry, 2015).
# Assays:
# hABL1(pF317L) = target: T1, hABL1(pF317L) (Homo sapiens, UniProt P00519, F317L); experiment: KINOMEscan; type: binding
# T1 construct: purchased DiscoverX (KINOMEscan platform)
# hKIT(D816H) = target: T2, hKIT(D816H) (Homo sapiens, UniProt P10721, D816H); experiment: KINOMEscan; type: binding
# T2 construct: purchased DiscoverX (KINOMEscan panel)
# hHCK = target: T3, hHCK (Homo sapiens, UniProt P08631); experiment: KINOMEscan; type: binding
# T3 construct: purchased DiscoverX
# T3 sequence (P08631 whole entry): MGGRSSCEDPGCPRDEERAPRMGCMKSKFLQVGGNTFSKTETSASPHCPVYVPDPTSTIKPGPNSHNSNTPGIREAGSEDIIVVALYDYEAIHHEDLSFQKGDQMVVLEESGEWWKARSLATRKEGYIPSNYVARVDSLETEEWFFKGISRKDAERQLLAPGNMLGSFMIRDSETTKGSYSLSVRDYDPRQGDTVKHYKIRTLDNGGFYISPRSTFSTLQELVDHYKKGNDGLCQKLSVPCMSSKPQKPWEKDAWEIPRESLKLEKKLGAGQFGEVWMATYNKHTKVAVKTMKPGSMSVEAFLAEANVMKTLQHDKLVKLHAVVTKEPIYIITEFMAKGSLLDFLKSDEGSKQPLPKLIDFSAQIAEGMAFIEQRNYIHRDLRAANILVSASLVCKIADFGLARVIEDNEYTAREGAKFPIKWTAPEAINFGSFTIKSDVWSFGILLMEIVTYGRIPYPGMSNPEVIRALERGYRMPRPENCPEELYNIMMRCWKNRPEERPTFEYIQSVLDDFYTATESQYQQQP
# hDDR1 = target: T4, hDDR1 (Homo sapiens, UniProt Q08345); experiment: KINOMEscan; type: binding
# T4 construct: purchased DiscoverX (KINOMEscan platform)
# hHIPK4 = target: T5, hHIPK4 (Homo sapiens, UniProt Q8NE63); experiment: KINOMEscan; type: binding
# T5 construct: purchased DiscoverX
# hALK(C1156Y) = target: T6, hALK(C1156Y) (Homo sapiens, UniProt Q9UM73, C1156Y); experiment: KINOMEscan; type: binding
# T6 construct: purchased DiscoverX
# hADORA3 = target: T7, hADORA3 (Homo sapiens, UniProt P0DMS8); experiment: cAMP Agonist (Eurofins-CEREP); conditions: @ 10 μM
# T7 sequence (P0DMS8 1-318): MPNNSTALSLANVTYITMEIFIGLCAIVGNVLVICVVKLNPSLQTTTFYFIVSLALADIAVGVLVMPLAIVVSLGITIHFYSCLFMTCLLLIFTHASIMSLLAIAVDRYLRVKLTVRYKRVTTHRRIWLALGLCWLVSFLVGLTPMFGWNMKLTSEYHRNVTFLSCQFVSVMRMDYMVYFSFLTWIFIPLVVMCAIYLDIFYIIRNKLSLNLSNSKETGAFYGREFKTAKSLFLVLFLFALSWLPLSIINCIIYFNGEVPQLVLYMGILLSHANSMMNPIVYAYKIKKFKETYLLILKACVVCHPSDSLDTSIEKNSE
# hANKK1 = target: T8, hANKK1 (Homo sapiens, UniProt Q8NFD2); experiment: KINOMEscan; type: binding
# T8 construct: purchased DiscoverX
# T8 sequence (Q8NFD2 whole entry): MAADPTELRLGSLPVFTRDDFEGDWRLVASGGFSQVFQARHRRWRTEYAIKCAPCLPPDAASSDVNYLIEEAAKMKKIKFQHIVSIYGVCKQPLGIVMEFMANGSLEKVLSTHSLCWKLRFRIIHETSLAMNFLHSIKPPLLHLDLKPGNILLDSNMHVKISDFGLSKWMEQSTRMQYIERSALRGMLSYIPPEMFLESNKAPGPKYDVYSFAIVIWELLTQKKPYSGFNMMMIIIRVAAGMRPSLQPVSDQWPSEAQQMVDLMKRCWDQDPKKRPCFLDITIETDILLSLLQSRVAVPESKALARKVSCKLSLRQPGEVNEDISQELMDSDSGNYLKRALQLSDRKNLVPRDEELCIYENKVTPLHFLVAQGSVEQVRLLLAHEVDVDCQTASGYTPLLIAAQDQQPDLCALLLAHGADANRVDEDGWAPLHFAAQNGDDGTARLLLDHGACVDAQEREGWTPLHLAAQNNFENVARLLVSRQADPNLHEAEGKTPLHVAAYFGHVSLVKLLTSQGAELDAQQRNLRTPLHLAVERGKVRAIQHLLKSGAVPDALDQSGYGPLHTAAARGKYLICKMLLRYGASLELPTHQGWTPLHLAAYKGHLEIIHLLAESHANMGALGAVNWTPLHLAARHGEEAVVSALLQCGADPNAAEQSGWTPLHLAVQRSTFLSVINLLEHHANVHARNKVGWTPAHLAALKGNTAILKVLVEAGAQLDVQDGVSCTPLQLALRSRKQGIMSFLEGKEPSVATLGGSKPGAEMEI
# hBRAF(V600E) = target: T9, hBRAF(V600E) (Homo sapiens, UniProt P15056, V600E); experiment: KINOMEscan; type: binding
# T9 construct: purchased DiscoverX
# hCAMK2D = target: T10, hCAMK2D (Homo sapiens, UniProt Q13557); experiment: KINOMEscan; type: binding
# T10 construct: purchased DiscoverX
# hOPRm1 = hOPRm1 (Homo sapiens, UniProt P35372); experiment: β-arrestin Antagonist (Eurofins-CEREP); conditions: read-out: % Effect, Inhibition
# hFGR = target: T11, hFGR (Homo sapiens, UniProt P09769); experiment: KINOMEscan; type: binding
# T11 construct: purchased DiscoverX
# hDCAMKL2 = target: T12, hDCAMKL2 (Homo sapiens, UniProt Q8N568); experiment: KINOMEscan; type: binding
# T12 construct: purchased DiscoverX (KINOMEscan platform)
# hMAP3K1 = target: T13, hMAP3K1 (Homo sapiens, UniProt Q13233); experiment: KINOMEscan; type: binding
# T13 construct: purchased DiscoverX (KINOMEscan platform)
# hYSK4 = target: T14, hYSK4 (Homo sapiens, UniProt Q56UN5); experiment: KINOMEscan; type: binding
# T14 construct: purchased DiscoverX
# hM3 = hM3 (Homo sapiens, UniProt P20309); experiment: β-arrestin Antagonist (Eurofins-CEREP); conditions: read-out: % Effect, Inhibition
# Chain of hM3 (P20309 whole entry): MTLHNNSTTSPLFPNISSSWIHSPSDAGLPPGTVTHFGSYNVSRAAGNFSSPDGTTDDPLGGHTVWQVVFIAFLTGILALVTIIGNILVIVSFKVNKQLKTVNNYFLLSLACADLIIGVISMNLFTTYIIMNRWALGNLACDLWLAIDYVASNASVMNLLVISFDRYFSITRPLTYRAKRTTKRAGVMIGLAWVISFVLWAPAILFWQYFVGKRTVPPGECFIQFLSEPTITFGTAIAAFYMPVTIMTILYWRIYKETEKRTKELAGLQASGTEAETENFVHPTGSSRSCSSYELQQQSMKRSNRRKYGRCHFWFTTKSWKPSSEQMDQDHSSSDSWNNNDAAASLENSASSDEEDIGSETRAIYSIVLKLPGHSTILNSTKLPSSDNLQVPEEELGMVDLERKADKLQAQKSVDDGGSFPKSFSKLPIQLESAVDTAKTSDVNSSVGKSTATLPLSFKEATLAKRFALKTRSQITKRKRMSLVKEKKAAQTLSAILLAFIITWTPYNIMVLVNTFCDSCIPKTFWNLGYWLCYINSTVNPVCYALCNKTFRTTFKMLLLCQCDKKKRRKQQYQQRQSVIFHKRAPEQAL
# hEIF2AK1 = target: T15, hEIF2AK1 (Homo sapiens, UniProt Q9BQI3); experiment: KINOMEscan; type: binding
# T15 construct: purchased DiscoverX
# [1] = target: T16, hRPS6KA5(Kin.Dom.1-N-term) (Homo sapiens, UniProt O75582); experiment: KINOMEscan; type: binding
# T16 construct: hRPS6KA5(Kin.Dom.1-N-term); purchased DiscoverX (KINOMEscan platform)
# T16 sequence (O75582 49-318 limits assumed): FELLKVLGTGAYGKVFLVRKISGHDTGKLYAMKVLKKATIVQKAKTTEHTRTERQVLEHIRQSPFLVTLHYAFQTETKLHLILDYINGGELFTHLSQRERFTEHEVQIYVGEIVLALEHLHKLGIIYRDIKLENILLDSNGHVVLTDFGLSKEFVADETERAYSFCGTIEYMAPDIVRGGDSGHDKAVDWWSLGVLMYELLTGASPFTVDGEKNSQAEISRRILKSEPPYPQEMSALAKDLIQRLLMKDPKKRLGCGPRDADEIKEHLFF
# hCSK = target: T17, hCSK (Homo sapiens, UniProt P41240); experiment: KINOMEscan; type: binding
# T17 construct: purchased DiscoverX (KINOMEscan platform)
# T17 sequence (P41240 whole entry): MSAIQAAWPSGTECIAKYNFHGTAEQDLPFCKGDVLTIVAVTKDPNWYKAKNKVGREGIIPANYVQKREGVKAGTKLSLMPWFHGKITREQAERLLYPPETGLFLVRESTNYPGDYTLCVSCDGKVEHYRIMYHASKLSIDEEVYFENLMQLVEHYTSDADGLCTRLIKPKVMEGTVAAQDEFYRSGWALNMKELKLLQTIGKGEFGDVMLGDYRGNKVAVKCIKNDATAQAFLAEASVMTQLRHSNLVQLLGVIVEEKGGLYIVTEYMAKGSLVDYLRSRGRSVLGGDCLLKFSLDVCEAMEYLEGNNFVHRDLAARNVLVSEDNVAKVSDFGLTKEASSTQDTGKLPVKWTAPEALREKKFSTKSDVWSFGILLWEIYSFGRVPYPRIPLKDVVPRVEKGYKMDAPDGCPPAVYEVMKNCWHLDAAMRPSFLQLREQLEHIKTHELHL
# hEPHA4 = target: T18, hEPHA4 (Homo sapiens, UniProt P54764); experiment: KINOMEscan; type: binding
# T18 construct: purchased DiscoverX
# hDCAMKL3 = target: T19, hDCAMKL3 (Homo sapiens, UniProt Q9C098); experiment: KINOMEscan; type: binding
# T19 construct: purchased DiscoverX (KINOMEscan platform)
# T19 sequence (Q9C098 whole entry): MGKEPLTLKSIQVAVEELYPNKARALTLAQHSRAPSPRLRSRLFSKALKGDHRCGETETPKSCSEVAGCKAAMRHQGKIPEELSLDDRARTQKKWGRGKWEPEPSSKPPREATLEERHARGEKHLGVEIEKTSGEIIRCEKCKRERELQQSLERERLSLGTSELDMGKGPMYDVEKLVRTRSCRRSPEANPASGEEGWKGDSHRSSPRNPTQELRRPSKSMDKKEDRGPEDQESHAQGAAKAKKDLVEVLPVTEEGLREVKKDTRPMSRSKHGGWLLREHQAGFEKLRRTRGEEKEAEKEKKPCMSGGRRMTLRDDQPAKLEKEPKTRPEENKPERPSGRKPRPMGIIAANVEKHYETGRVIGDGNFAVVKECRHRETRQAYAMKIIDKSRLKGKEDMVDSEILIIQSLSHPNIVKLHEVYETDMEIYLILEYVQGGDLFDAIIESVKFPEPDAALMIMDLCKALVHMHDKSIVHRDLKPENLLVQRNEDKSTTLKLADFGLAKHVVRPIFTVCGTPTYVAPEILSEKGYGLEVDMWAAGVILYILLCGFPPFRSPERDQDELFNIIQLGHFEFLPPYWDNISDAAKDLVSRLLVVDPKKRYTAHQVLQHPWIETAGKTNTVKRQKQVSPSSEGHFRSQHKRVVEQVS
# hCSF1R = target: T20, hCSF1R (Homo sapiens, UniProt P07333); experiment: KINOMEscan; type: binding
# T20 construct: purchased DiscoverX (KINOMEscan platform)
# hINSRR = target: T21, hINSRR (Homo sapiens, UniProt P14616); experiment: KINOMEscan; type: binding
# T21 construct: purchased DiscoverX (KINOMEscan panel)
# hEPHA5 = target: T22, hEPHA5 (Homo sapiens, UniProt P54756); experiment: KINOMEscan; type: binding
# T22 construct: purchased DiscoverX
# hCIT = target: T23, hCIT (Homo sapiens, UniProt O14578); experiment: KINOMEscan; type: binding
# T23 construct: purchased DiscoverX
# hTRKA = target: T24, hTRKA (Homo sapiens, UniProt P04629); experiment: KINOMEscan; type: binding
# T24 construct: purchased DiscoverX
# hGRK4 = target: T25, hGRK4 (Homo sapiens, UniProt P32298); experiment: KINOMEscan; type: binding
# T25 construct: purchased DiscoverX
# hTRKB = target: T26, hTRKB (Homo sapiens, UniProt Q16620); experiment: KINOMEscan; type: binding
# T26 construct: purchased DiscoverX
# hROCK1 = target: T27, hROCK1 (Homo sapiens, UniProt Q13464); experiment: KINOMEscan; type: binding
# T27 construct: purchased DiscoverX (KINOMEscan platform)
# hITK = target: T28, hITK (Homo sapiens, UniProt Q08881); experiment: KINOMEscan; type: binding
# T28 construct: purchased DiscoverX (KINOMEscan panel)
# T28 sequence (Q08881 whole entry): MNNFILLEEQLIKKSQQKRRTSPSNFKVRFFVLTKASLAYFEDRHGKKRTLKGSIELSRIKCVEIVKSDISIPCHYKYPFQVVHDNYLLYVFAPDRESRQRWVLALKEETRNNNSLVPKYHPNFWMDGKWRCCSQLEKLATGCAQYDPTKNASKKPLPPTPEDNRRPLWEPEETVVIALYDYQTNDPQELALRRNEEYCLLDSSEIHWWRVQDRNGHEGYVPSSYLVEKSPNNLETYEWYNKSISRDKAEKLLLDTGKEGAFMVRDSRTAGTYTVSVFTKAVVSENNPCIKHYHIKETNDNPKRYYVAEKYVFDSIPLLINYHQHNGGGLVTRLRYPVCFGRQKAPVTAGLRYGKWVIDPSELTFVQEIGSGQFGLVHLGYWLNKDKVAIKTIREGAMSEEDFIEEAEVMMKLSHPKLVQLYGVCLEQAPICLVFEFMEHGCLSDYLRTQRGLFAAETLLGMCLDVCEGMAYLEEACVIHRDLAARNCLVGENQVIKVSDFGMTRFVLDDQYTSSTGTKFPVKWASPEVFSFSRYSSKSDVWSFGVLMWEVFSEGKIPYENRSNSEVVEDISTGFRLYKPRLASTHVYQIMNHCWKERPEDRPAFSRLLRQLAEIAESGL
# hDMPK2 = target: T29, hDMPK2 (Homo sapiens, UniProt Q6DT37); experiment: KINOMEscan; type: binding
# T29 construct: purchased DiscoverX (KINOMEscan platform)
# hLOK = target: T30, hLOK (Homo sapiens, UniProt O94804); experiment: KINOMEscan; type: binding
# T30 construct: purchased DiscoverX (KINOMEscan platform)
# hVEGFR2 = target: T31, hVEGFR2 (Homo sapiens, UniProt P35968); experiment: KINOMEscan; type: binding
# T31 construct: purchased DiscoverX
# hS6K1 = target: T32, hS6K1 (Homo sapiens, UniProt P23443); experiment: KINOMEscan; type: binding
# T32 construct: purchased DiscoverX (KINOMEscan platform)
# hFES = target: T33, hFES (Homo sapiens, UniProt P07332); experiment: KINOMEscan; type: binding
# T33 construct: purchased DiscoverX
# hH1 = hH1 (Homo sapiens, UniProt P35367); experiment: β-arrestin Antagonist (Eurofins-CEREP); conditions: read-out: % Effect, Inhibition
# hRET(V804L) = target: T34, hRET(V804L) (Homo sapiens, UniProt P07949, V804L); experiment: KINOMEscan; type: binding
# T34 construct: purchased DiscoverX (KINOMEscan platform)
# T34 sequence (P07949 29-1114 V804L): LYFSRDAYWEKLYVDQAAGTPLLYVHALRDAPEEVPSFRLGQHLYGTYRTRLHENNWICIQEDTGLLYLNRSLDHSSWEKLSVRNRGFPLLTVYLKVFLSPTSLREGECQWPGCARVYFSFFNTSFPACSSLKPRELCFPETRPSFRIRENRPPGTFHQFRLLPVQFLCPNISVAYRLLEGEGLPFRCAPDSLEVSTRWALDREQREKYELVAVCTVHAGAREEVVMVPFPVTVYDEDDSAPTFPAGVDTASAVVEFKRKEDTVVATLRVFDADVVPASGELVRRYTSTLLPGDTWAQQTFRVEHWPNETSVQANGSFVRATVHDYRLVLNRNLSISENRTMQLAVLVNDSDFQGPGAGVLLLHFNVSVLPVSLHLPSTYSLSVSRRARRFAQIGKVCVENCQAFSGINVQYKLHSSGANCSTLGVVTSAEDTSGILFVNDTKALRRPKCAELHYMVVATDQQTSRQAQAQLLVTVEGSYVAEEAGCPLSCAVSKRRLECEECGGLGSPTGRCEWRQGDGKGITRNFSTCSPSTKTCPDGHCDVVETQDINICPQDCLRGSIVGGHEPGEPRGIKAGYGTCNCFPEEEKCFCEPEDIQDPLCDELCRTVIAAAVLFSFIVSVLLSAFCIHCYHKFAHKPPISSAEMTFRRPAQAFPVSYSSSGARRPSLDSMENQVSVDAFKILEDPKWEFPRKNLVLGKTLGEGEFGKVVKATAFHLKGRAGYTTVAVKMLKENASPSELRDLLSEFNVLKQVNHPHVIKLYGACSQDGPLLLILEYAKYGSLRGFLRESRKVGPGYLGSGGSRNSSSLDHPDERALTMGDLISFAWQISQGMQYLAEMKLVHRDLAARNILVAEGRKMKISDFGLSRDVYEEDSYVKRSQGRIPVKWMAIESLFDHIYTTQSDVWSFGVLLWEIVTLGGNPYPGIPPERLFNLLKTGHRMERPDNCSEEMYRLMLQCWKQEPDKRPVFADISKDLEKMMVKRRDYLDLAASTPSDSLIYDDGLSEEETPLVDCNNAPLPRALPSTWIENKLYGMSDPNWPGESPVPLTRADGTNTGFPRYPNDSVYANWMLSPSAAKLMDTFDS
compound,measurement,setting,value
"Cc1cn(CCN2CCN(c3ccccc3-c3cc(C#N)cc(C(=O)NCCCN4CCCC4)c3)CC2)c2ccccc12 [LLY-507, 3-cyano-5-{2-[4-[2-(3-methylindol-1-yl)ethyl]piperazin-1-yl]-phenyl}-N-[(3-pyrrolidin-1-yl)propyl]benzamide]",IC50,hABL1(pF317L),> 20 µM
same,IC50,hKIT(D816H),> 20 µM
same,IC50,hHCK,> 20 µM
same,IC50,hDDR1,> 20 µM
same,IC50,hHIPK4,> 20 µM
same,IC50,hALK(C1156Y),> 20 µM
same,"% Effect, Stimulation",hADORA3,2.6%
same,IC50,hANKK1,> 20 µM
same,IC50,hBRAF(V600E),> 20 µM
same,IC50,hCAMK2D,> 20 µM
same,inhibition at 1 µM,hOPRm1,-3.9%
same,IC50,hFGR,> 20 µM
same,IC50,hDCAMKL2,> 20 µM
same,IC50,hMAP3K1,> 20 µM
same,IC50,hYSK4,> 20 µM
same,inhibition at 10 µM,hM3,-23.6%
same,IC50,hEIF2AK1,> 20 µM
same,IC50,[1],> 20 µM
same,IC50,hCSK,> 20 µM
same,IC50,hEPHA4,> 20 µM
same,IC50,hDCAMKL3,> 20 µM
same,IC50,hCSF1R,> 20 µM
same,IC50,hINSRR,> 20 µM
same,IC50,hEPHA5,> 20 µM
same,IC50,hCIT,> 20 µM
same,IC50,hTRKA,> 20 µM
same,IC50,hGRK4,> 20 µM
same,IC50,hTRKB,> 20 µM
same,IC50,hROCK1,> 20 µM
same,IC50,hITK,> 20 µM
same,IC50,hDMPK2,> 20 µM
same,IC50,hLOK,> 20 µM
same,IC50,hVEGFR2,> 20 µM
same,IC50,hS6K1,> 20 µM
same,IC50,hFES,> 20 µM
same,inhibition at 10 µM,hH1,30.1%
same,IC50,hRET(V804L),> 20 µM
